# Key:
# [1] = tested on: Bibionidae; conditions: chronic/long-term; duration: 28 days
# [2] = tested on: Coturnix japonica; conditions: reproduction developmental
# [3] = tested on: Daphnia magna; conditions: chronic/long-term; duration: 21 days; reproduction
# [4] = tested on: Mus musculus; conditions: chronic; duration: 2 years; hematological
# [5] = tested on: Oncorhynchus mykiss; conditions: chronic/long-term; duration: 21 days; growth
# [6] = tested on: Oryctolagus sp.; conditions: reproduction developmental; mortality
# [7] = tested on: Rattus norvegicus
# [8] = tested on: Tagia sp.; conditions: chronic/long-term; duration: 56 days
# [9] = tested on: Typhlodromus pyri; conditions: not reported; mortality
smiles,measurement,setting,value
COC(=O)c1cc(Oc2ccc(Cl)cc2Cl)ccc1[N+](=O)[O-] [Bifenox],NOEC,[1],0.015 mg/L
same,NOEC,[2],290 mg/kg-day
same,NOEC,[3],0.00015 mg/L
same,NOAEL,[4],30 mg/kg-day
same,NOEC,[5],0.0091 mg/L
same,NOAEL,[6],50 mg/kg-day
same,NOAEL,[7]; chronic,16 mg/kg-day
same,NOAEL,"[7]; reproduction developmental, reproduction",44.5 mg/kg-day
same,NOEC,[8],5.1 mg/kg
same,LEL,[9],720 g/ha

# Reference: EPA's ToxValDB 9.5 (doi:10.2903/j.efsa.2008.119r)
